Measurements: ChEMBL document CHEMBL4257479, “Design, synthesis and evaluation of indole derivatives as multifunctional agents against Alzheimer's disease” (Medchemcomm, 2018)
Active and inactive are the calls of the source. The calls are words filed in the database; no cut-off is given here.

Assays:
[1] = target: T1, Amine oxidase [flavin-containing] A (Homo sapiens, UniProt P21397); assay: Inhibition of human recombinant MAOA using kynuramine as substrate preincubated for 10 mins followed by substrate addition at 10 secs intervals measured after 20 mins by fluorescence assay
T1 sequence (P21397 whole entry): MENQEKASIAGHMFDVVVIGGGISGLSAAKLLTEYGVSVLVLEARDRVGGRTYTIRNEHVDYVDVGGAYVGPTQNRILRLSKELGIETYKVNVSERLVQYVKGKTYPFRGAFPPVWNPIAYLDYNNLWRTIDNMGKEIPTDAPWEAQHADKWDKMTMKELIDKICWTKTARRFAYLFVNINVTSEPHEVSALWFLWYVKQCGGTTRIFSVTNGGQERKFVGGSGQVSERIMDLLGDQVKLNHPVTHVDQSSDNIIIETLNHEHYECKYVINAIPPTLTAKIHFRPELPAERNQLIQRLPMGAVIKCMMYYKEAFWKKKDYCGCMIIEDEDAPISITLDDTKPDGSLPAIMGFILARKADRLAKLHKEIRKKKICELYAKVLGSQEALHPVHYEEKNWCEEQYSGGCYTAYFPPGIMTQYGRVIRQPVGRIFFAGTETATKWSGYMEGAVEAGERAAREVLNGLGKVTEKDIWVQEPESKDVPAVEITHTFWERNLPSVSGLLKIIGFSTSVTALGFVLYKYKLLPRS

[2] = target: T2, Amine oxidase [flavin-containing] B (Homo sapiens, UniProt P27338)
T2 sequence (P27338 whole entry): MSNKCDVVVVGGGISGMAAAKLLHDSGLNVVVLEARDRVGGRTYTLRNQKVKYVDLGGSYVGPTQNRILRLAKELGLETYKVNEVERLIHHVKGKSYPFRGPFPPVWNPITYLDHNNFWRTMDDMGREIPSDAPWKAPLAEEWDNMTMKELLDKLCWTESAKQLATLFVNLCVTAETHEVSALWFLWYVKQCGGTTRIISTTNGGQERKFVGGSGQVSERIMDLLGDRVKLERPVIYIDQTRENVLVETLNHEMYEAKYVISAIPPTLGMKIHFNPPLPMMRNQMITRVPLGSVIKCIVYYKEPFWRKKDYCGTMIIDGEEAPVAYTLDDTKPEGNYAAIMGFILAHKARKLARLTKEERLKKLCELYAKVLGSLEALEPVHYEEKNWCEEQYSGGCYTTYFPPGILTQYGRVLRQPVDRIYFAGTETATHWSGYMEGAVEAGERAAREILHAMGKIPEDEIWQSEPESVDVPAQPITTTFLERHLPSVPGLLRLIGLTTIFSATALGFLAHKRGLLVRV
Description: Inhibition of human recombinant MAOB using kynuramine as substrate preincubated for 10 mins followed by substrate addition at 10 secs intervals measured after 20 mins by fluorescence assay

Homo sapiens = species: Homo sapiens; assay: Selectivity index, ratio of IC50 for human recombinant MAOA to IC50 for human recombinant MAOB
Acetylcholinesterase = Acetylcholinesterase (Electrophorus electricus, UniProt O42275); assay: Inhibition of electric eel AChE using acetylthiocholine iodide as substrate preincubated for 10 mins followed by substrate addition and measured after 10 mins by Ellman's method
Acetylcholinesterase, sequence (O42275 whole entry): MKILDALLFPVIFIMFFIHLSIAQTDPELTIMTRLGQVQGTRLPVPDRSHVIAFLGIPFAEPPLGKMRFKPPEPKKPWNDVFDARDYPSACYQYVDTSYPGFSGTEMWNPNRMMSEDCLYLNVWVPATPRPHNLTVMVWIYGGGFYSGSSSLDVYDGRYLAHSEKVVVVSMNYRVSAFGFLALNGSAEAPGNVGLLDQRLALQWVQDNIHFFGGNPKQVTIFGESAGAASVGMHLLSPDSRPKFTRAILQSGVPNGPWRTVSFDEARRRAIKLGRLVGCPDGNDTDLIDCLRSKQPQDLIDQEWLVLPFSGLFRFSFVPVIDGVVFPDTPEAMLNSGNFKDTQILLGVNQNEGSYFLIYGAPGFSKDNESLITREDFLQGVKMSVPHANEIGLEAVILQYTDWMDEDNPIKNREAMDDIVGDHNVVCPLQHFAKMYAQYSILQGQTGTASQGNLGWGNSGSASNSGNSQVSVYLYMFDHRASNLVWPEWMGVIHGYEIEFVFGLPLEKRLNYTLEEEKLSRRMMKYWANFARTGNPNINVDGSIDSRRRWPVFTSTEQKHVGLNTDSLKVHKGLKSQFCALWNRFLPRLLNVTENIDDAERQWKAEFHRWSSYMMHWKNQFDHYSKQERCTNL

Cholinesterase = Cholinesterase (Equus caballus, UniProt P81908); assay: Inhibition of equine serum BuChE using S-butyrylthiocholine iodide as substrate pretreated for 10 mins followed by substrate addition and measured after 10 mins by Ellman's method
Cholinesterase, sequence (P81908 whole entry): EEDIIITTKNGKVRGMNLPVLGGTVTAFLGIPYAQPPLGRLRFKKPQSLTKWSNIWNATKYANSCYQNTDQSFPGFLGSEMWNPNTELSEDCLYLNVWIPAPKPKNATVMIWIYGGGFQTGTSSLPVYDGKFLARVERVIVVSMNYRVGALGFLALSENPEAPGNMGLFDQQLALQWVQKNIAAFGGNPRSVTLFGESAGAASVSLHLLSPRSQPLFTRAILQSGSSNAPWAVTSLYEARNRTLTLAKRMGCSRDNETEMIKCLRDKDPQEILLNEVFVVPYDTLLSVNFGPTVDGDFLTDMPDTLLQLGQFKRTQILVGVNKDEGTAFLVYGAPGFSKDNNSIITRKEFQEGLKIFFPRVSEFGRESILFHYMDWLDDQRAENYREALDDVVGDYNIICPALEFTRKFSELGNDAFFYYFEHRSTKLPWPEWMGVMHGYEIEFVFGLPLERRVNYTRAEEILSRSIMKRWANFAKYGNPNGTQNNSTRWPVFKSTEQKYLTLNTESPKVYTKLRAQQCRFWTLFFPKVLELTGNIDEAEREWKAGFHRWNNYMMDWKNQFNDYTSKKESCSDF

[3] = Stability in 0.1 M HCl assessed as compound degradation at 1 mg/ml up to 7 days by UV/vis absorbance assay; type: physicochemical; conditions: buffer, 168 h
[4] = Stability in 0.1 M NaOH assessed as compound degradation at 1 mg/ml up to 7 days by UV/vis absorbance assay; type: physicochemical; conditions: 168 h
[5] = target: T1, Amine oxidase [flavin-containing] A; assay: Irreversible time dependent inhibition of human recombinant MAOA at 2 times IC50 using kynuramine as substrate preincubated up to 60 mins followed by 45 uM substrate addition by fluorescence assay; conditions: TDE = time-dependent effect
[6] = (§1) Cytotoxicity against human SH-SY5Y cells assessed as reduction in cell viability after 48 hrs by MTT assay; type: cell-based; conditions: SH-SY5Y cells
SH-SY5Y [7] = assay: as §1; type: cell-based; conditions: sh-sy5y, 48 h
SH-SY5Y [8] = assay: Cytoprotection against MPP+ induced cell death in human SH-SY5Y cells assessed as cell survival at 1 uM preincubated for 2 hrs followed by MPP+ addition and measured after 48 hrs by MTT assay (reference value: 52.78 +/- 7.35%); type: functional; conditions: read-out: Activity
SH-SY5Y [9] = assay: Cytoprotection against MPP+ induced cell death in human SH-SY5Y cells assessed as cell survival at 5 to 10 uM preincubated for 2 hrs followed by MPP+ addition and measured after 48 hrs by MTT assay (reference value: 52.78 +/- 7.35%); type: functional, cell-based

SMILES | IC50 [1] | IC50 [2] | Ratio IC50 (Homo sapiens) | IC50 (Acetylcholinesterase) | IC50 (Cholinesterase) | Stability [3] | Stability [4] | inhibition (INH) [5] | CC50 at 48 h [6] | Activity (SH-SY5Y [7]) | viability at 1 µM (SH-SY5Y [8]) | Activity (SH-SY5Y [9])
C#CCn1ccc2ccc(OC(=O)N(CC)CC)cc21 | 51.6 µM | 1.84 µM | 28.1 | 2.41 µM | 5.01 µM | Unstable | Unstable | – | – | – | – | –
CCN(CC)C(=O)Nc1ccc2[nH]ccc2c1 | > 100 µM | > 100 µM | – | 1.97 µM | 3.48 µM | – | – | – | – | – | – | –
C#CCN(C)CCCOc1ccc(Cl)cc1Cl [CLORGILINE] | – | – | – | – | – | – | – | Tde | – | – | – | –
CCN(CC)C(=O)Oc1ccc2[nH]ccc2c1 | 13.2 µM | > 100 µM | < 0.13 | 2.78 µM | 2.29 µM | – | – | – | – | – | – | –
CCN(CC)C(=O)Nc1ccc2cc[nH]c2c1 | 20.4 µM | > 100 µM | < 0.2 | 2.28 µM | 4.55 µM | – | – | – | > 100 µM | Dose-dependent effect | 84.3% | Active
CCN(CC)C(=O)Oc1ccc2cc[nH]c2c1 | 88.1 µM | > 100 µM | < 0.88 | 3.72 µM | 3.18 µM | – | – | – | – | – | – | –
C#CCn1ccc2cc(NC(=O)N(CC)CC)ccc21 | 33.4 µM | 28.8 µM | 1.16 | 2.77 µM | 3.96 µM | – | – | – | – | – | – | –
C#CCN[C@@H]1CCc2ccc(OC(=O)N(C)CC)cc21 [LADOSTIGIL] | > 100 µM | – | > 2.69 | 31.8 µM | 1.98 µM | – | – | – | – | – | – | –
C#CCn1ccc2cc(OC(=O)N(CC)CC)ccc21 | 99.1 µM | 16.5 µM | 6 | 2.57 µM | 3.01 µM | – | – | – | – | – | – | –
C#CCn1ccc2ccc(NC(=O)N(CC)CC)cc21 | 4.31 µM | 2.62 µM | 1.65 | 3.7 µM | 2.82 µM | Stable | Stable | Tde | > 100 µM | Dose-dependent effect | 107% | Active
